In data set [1] the test system is Pseudomonas aeruginosa. The experiment in a line: Antimicrobial activity against MexABCDXY-deficient Pseudomonas aeruginosa PAO1 ARC546 by broth microdilution method. In kind it is functional.
Data set [2] deals with Pseudomonas aeruginosa. As to the kind of experiment: Antimicrobial activity against Pseudomonas aeruginosa by broth microdilution method. In kind it is functional. For orientation: In broth dilution the organism is exposed to a series of concentrations in liquid medium.
In data set [3] the test system is Pseudomonas aeruginosa. As to the kind of experiment: Antimicrobial activity against Pseudomonas aeruginosa PAO1 ARC545 by broth microdilution method. It counts as functional.
Data set [4] can be described thus: Percentage unbound in human plasma at 10 uM after 16 hrs by LC-MS/MS analysis.
Data set [5] can be described thus: Clearance in Wistar Han rat at 1 mg/kg, iv infusion. Conditions: in vivo. It counts as ADME, organism-based. More on the design: dose 1 mg/kg, route intravenous.
A further data set deals with Acinetobacter baumannii. As to the kind of experiment: Antimicrobial activity against Acinetobacter baumannii by broth microdilution method. In kind it is functional.
Data set [6] in a line: Half life in PBS buffer in pH 7.4 by UPLC analysis. It counts as ADME.
Another data set relates to Klebsiella pneumoniae. The experiment in a line: Antimicrobial activity against Klebsiella pneumoniae by broth microdilution method. In kind it is functional.
A short description of data set [7]: Plasma protein binding in Wistar Han rat as percentage unbound.
The subject of data set [8] is Pseudomonas aeruginosa. The experiment in a line: Inhibition of Pseudomonas aeruginosa PBP3 acylation activity by BOCILLIN FL-based assay.
The nature of data set [9]: Half life in Wistar Han rat at 1 mg/kg, iv infusion. More on the design: dose 1 mg/kg, route intravenous. It counts as ADME, organism-based. The settings on record: in vivo.
The nature of data set [10]: Volume of distribution at steady state in Wistar Han rat at 1 mg/kg, iv infusion. It counts as ADME, organism-based. More on the design: dose 1 mg/kg, route intravenous. Conditions: in vivo, read-out: Vdss.
A further data set has as its system Escherichia coli. The experiment in a line: Antimicrobial activity against Escherichia coli by broth microdilution method. It counts as functional.

Here are results for 3 molecules from ChEMBL document CHEMBL3407427, “Discovery of efficacious Pseudomonas aeruginosa-targeted siderophore-conjugated monocarbams by application of a semi-mechanistic pharmacokinetic/pharmacodynamic model” (J Med Chem, 2015).

Values after ≈ are worked out from the molar mass of the structure shown. A value given as a limit tells only on which side of the number the result lay.

As usually defined, the MIC is the lowest concentration found to suppress growth. Lower therefore signals greater potency. Usually MIC90 stands for an inhibitory concentration at the 90% level, which refers to growth in some studies and to a panel of isolates in others. A higher MIC90 goes with lower susceptibility. What is called fraction unbound is free concentration divided by total concentration. A higher fraction unbound goes with much free substance. The term clearance denotes the volume of plasma or blood freed of the substance per unit of time. Low readings indicate inefficient removal, high ones efficient removal. What is called half-life is the time in which the quantity being followed falls by half. A low value points to rapid decline. As to `C[C@H]1[C@H](NC(=O)/C(=N\OC(C)(C)C(=O)O)c2csc(N)n2)C(=O)N1C(=O)NS(=O)(=O)N1CCN(C(=O)c2cc(=O)c(O)c[nH]2)N(C)C1=O`, the MIC against Pseudomonas aeruginosa [1] is under 0.06 µg/mL; in the data set with Pseudomonas aeruginosa [3], 1 µg/mL (≈ 1.4 µM). For the same molecule, the MIC90 in the data set with Pseudomonas aeruginosa [2] is 2 µg/mL (≈ 2.81 µM); in the data set on Acinetobacter baumannii, over 128 µg/mL; against Klebsiella pneumoniae it was 64 µg/mL (≈ 89.8 µM); in the data set on Escherichia coli it was 64 µg/mL (≈ 89.8 µM). The fraction unbound at 16 h, 10 µM in [4] turned out to be 0.14. Also, the clearance in [5] is 12 mL/min/kg. The values for the half-life in data set [6] and in [9] were 38 h and 0.37 h, respectively. This molecule also showed a fraction unbound in data set [7] of 0.15. Also, the Kinact with Pseudomonas aeruginosa [8] came out at 2.6 ×10⁴ /M/s. The Vd in [10] was 0.42 L/kg.

`C[C@H]1[C@H](NC(=O)/C(=N\OC(C)(C)C(=O)O)c2csc(N)n2)C(=O)N1C(=O)NS(=O)(=O)n1nc(-c2cc(=O)c(O)c[nH]2)n(C[C@@H](O)CO)c1=O`: the MIC with Pseudomonas aeruginosa [1] is under 0.06 µg/mL; in the data set on Pseudomonas aeruginosa [3] it was 0.25 µg/mL (≈ 0.343 µM). For the same molecule, the MIC90 against Pseudomonas aeruginosa [2] was 0.25 µg/mL (≈ 0.343 µM); in the data set on Acinetobacter baumannii it was over 128 µg/mL; against Klebsiella pneumoniae it was 8 µg/mL (≈ 11 µM); in the data set with Escherichia coli it was 16 µg/mL (≈ 22 µM). In data set [4], this molecule registered a free fraction (fraction unbound) at 16 h, 10 µM of 0.04. This molecule displayed a clearance in data set [5] of 9 mL/min/kg. Moreover, the half-life in data set [6] is 138 h; in data set [9], 0.39 h. In data set [7], this molecule showed an unbound share (fraction unbound) of 0.04. This molecule also showed a Kinact in the data set with Pseudomonas aeruginosa [8] of 7.2 ×10⁴ /M/s. Further, in data set [10], the Vd stood at 0.28 L/kg.

With `C[C@H]1[C@H](NC(=O)/C(=N\OC(C)(C)C(=O)O)c2csc(N)n2)C(=O)N1C(=O)NS(=O)(=O)N1C[C@@H](NC(=O)NCc2cc(=O)c(O)cn2O)CC1=O`, the figures for the MIC against Pseudomonas aeruginosa [1] and against Pseudomonas aeruginosa [3] were under 0.06 µg/mL and 0.5 µg/mL (≈ 0.673 µM), respectively. In addition, the MIC90 against Pseudomonas aeruginosa [2] was 2 µg/mL (≈ 2.69 µM); with Acinetobacter baumannii, over 128 µg/mL; in the data set on Klebsiella pneumoniae, 32 µg/mL (≈ 43.1 µM); in the data set on Escherichia coli it was 16 µg/mL (≈ 21.5 µM). Further, the fraction unbound at 16 h, 10 µM in [4] was 0.26. Moreover, the clearance in data set [5] is 9 mL/min/kg. For the same molecule, the half-life in data set [6] was 87 h; in [9], 0.49 h. In data set [7], this molecule returned a fraction unbound of 0.29. Further, in the data set on Pseudomonas aeruginosa [8], the Kinact is 5.9 ×10⁴ /M/s. Besides, in data set [10], the Vd turned out to be 0.29 L/kg.
